In PubChem BioAssay AID330 (DTP/NCI, 2004):
Several values for one entry are separate records, joined by “and”; a condition that tells them apart may be missing. Equal values may be shown once. Toxic doses and inconclusive results are not listed. The calls were made as follows: active = survival T/C of 150% or more; inactive = T/C below 125% in these data.

Tested on: P388 leukemia ip, CD2F1 mice, survival T/C
Assay: NCI In Vivo Anticancer Drug Screen. Data for tumor model P388 Leukemia (intraperitoneal) in CD2F1 (CDF1) mice
Settings: endpoint: median survival time, higher = longer survival
Outline: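 Mice carrying the transplanted tumor received test compound or vehicle. Survival was recorded in each group, and the value is the treated-group measurement divided by that of the vehicle-treated control group.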

[1] = dose: 50.0 mg/kg/injection, schedule: Q01DX005 (ip), vehicle: saline
[2] = dose: 100.0 mg/kg/injection, schedule: Q01DX005 (ip), vehicle: saline
[3] = dose: 50.0 mg/kg/injection, schedule: Q01DX009 (ip), vehicle: Klucel (hydroxypropylcellulose) (HPC)
[4] = dose: 100.0 mg/kg/injection, schedule: Q01DX009 (ip), vehicle: Klucel (hydroxypropylcellulose) (HPC)
[5] = dose: 200.0 mg/kg/injection, schedule: Q01DX009 (ip), vehicle: Klucel (hydroxypropylcellulose) (HPC)
[6] = dose: 60.0 mg/kg/injection, schedule: Q01DX005 (ip), vehicle: Klucel (hydroxypropylcellulose) (HPC)
[7] = dose: 120.0 mg/kg/injection, schedule: Q01DX005 (ip), vehicle: Klucel (hydroxypropylcellulose) (HPC)
[8] = dose: 200.0 mg/kg/injection, schedule: Q01DX005 (ip), vehicle: saline
[9] = dose: 50.0 mg/kg/injection, schedule: Q01DX009 (ip), vehicle: saline with Tween-80
[10] = dose: 100.0 mg/kg/injection, schedule: Q01DX009 (ip), vehicle: saline with Tween-80
[11] = dose: 200.0 mg/kg/injection, schedule: Q01DX009 (ip), vehicle: saline with Tween-80
[12] = dose: 60.0 mg/kg/injection, schedule: Q01DX005 (ip), vehicle: saline with Tween-80
[13] = dose: 120.0 mg/kg/injection, schedule: Q01DX005 (ip), vehicle: saline with Tween-80
[14] = dose: 240.0 mg/kg/injection, schedule: Q01DX005 (ip), vehicle: saline with Tween-80
[15] = dose: 50.0 mg/kg/injection, schedule: Q01DX005 (ip), vehicle: saline with Tween-80
[16] = dose: 100.0 mg/kg/injection, schedule: Q01DX005 (ip), vehicle: saline with Tween-80
[17] = dose: 200.0 mg/kg/injection, schedule: Q01DX005 (ip), vehicle: saline with Tween-80
[18] = dose: 50.0 mg/kg/injection, schedule: Q01DX009 (ip), vehicle: saline
[19] = dose: 100.0 mg/kg/injection, schedule: Q01DX009 (ip), vehicle: saline
[20] = dose: 12.5 mg/kg/injection, schedule: Q01DX005 (ip), vehicle: Klucel (hydroxypropylcellulose) (HPC)
[21] = dose: 25.0 mg/kg/injection, schedule: Q01DX005 (ip), vehicle: Klucel (hydroxypropylcellulose) (HPC)
[22] = dose: 50.0 mg/kg/injection, schedule: Q01DX005 (ip), vehicle: Klucel (hydroxypropylcellulose) (HPC)
[23] = dose: 100.0 mg/kg/injection, schedule: Q04DX003 (ip), vehicle: saline
[24] = dose: 200.0 mg/kg/injection, schedule: Q04DX003 (ip), vehicle: saline
[25] = dose: 400.0 mg/kg/injection, schedule: Q04DX003 (ip), vehicle: saline

Measured: T/C

CC(C)N1COC(c2ccccc2)C1 (centres undefined)
inactive: dose: 12.5 mg/kg/injection, schedule: Q01DX005 (ip), vehicle: saline 106 % of control and 88 % of control | dose: 25.0 mg/kg/injection, schedule: Q01DX005 (ip), vehicle: saline 123 % of control and 96 % of control | [1] 100 % of control and 110 % of control and 117 % of control | [2] 124 % of control

C1=C(OC(=Nc2ccccc2)N2CCOCC2)N=C(OC(=Nc2ccccc2)N2CCOCC2)/C1=C1\C=C(OC(=Nc2ccccc2)N2CCOCC2)N=C1OC(=Nc1ccccc1)N1CCOCC1
inactive: dose: 100.0 mg/kg/injection, schedule: Q01DX001 (ip), vehicle: Klucel (hydroxypropylcellulose) (HPC) 104 % of control | dose: 200.0 mg/kg/injection, schedule: Q01DX001 (ip), vehicle: Klucel (hydroxypropylcellulose) (HPC) 107 % of control | dose: 400.0 mg/kg/injection, schedule: Q01DX001 (ip), vehicle: Klucel (hydroxypropylcellulose) (HPC) 106 % of control

O=c1c2cc(Cl)ccc2nc2n1OCC2
inactive: [3] 94 % of control | [4] 112 % of control | [5] 104 % of control

CC(=O)C1CCC2=C(C1)C(=O)c1cc3c(cc1C2=O)C1(c2ccccc2)OC3(c2ccccc2)C2C(=O)N(c3ccccc3)C(=O)C21 (centres undefined)
inactive: [6] 90 % of control | [7] 88 % of control

O=S(=O)(O)C1=CC(=N/Cl)/C=CC/1=N\Cl
inactive: [1] 114 % of control and 116 % of control and 119 % of control | [2] 104 % of control and 121 % of control and 124 % of control | [8] 107 % of control and 116 % of control and 121 % of control | dose: 400.0 mg/kg/injection, schedule: Q01DX005 (ip), vehicle: saline 106 % of control

Cc1[nH]c2ccccc2c1-c1cc(-c2cc(-c3c(C)[nH]c4ccccc34)nc(N)n2)nc(N)n1
inactive: [6] 97 % of control | [7] 90 % of control

CC(C)S(=O)c1ccc(Cl)cc1[N+](=O)[O-] (centres undefined)
inactive: [9] 99 % of control | [10] 99 % of control | [11] 100 % of control

O=C1CCC(c2n[nH]c(=S)o2)N1Cc1ccccc1 (centres undefined)
inactive: [12] 98 % of control | [13] 100 % of control | [14] 103 % of control

O=C(NC(CSSCC(NC(=O)c1ccc([N+](=O)[O-])cc1)C(=O)O)C(=O)O)c1ccc([N+](=O)[O-])cc1 (centres undefined)
inactive: [15] 108 % of control | [16] 101 % of control | [17] 109 % of control

O=C(/C=C/c1c(-c2ccccc2)[nH]c2ccccc12)c1ccccc1[N+](=O)[O-]
inactive: [12] 95 % of control | [13] 96 % of control | [14] 92 % of control

COC(=O)C1CC(C)N1C1CCCCC1 (centres undefined)
inactive: [1] 97 % of control | [2] 97 % of control | [8] 101 % of control

CCOC(=O)C(C)NO (centres undefined)
inactive: [18] 97 % of control | [19] 94 % of control

CC(C)(C)C(N)=S
inactive: [1] 103 % of control | [2] 101 % of control | [8] 101 % of control

OCC1(CO)COC2(CCCCC2)N1
inactive: [18] 107 % of control | [19] 101 % of control and 120 % of control | dose: 200.0 mg/kg/injection, schedule: Q01DX009 (ip), vehicle: saline 100 % of control and 124 % of control

COc1cccc2c1C(=O)c1c(O)c3c(c(O)c1C2=O)CC(O)(c1csc(-c2ccncc2)n1)CC3O (centres undefined)
inactive: dose: 1.56 mg/kg/injection, schedule: Q01DX009 (ip), vehicle: other 106 % of control | dose: 3.13 mg/kg/injection, schedule: Q01DX009 (ip), vehicle: other 105 % of control | dose: 6.25 mg/kg/injection, schedule: Q01DX009 (ip), vehicle: other 104 % of control | dose: 12.5 mg/kg/injection, schedule: Q01DX009 (ip), vehicle: other 106 % of control | dose: 25.0 mg/kg/injection, schedule: Q01DX009 (ip), vehicle: other 113 % of control and 116 % of control | dose: 50.0 mg/kg/injection, schedule: Q01DX009 (ip), vehicle: other 107 % of control | dose: 100.0 mg/kg/injection, schedule: Q01DX009 (ip), vehicle: other 102 % of control

Cc1cc(CO)cc(CO)c1
inactive: dose: 100.0 mg/kg/injection, schedule: Q01DX001 (ip), vehicle: saline with Tween-80 104 % of control | dose: 200.0 mg/kg/injection, schedule: Q01DX001 (ip), vehicle: saline with Tween-80 101 % of control | dose: 400.0 mg/kg/injection, schedule: Q01DX001 (ip), vehicle: saline with Tween-80 100 % of control

Nc1cccc[n+]1CCCCCC[n+]1ccccc1N
inactive: dose: 3.13 mg/kg/injection, schedule: Q01DX009 (ip), vehicle: saline 102 % of control | dose: 6.25 mg/kg/injection, schedule: Q01DX009 (ip), vehicle: saline 103 % of control

COc1ccc2c3c1O[C@H](c1ccc(O)cc1)[C@H]3[N+](C)(C)CC2
inactive: dose: 6.25 mg/kg/injection, schedule: Q01DX005 (ip), vehicle: Klucel (hydroxypropylcellulose) (HPC) 107 % of control | [20] 110 % of control | [21] 110 % of control | [22] 103 % of control

CCc1nc(N)nc(N)c1-c1ccc(NCCCN)c([N+](=O)[O-])c1
inactive: dose: 30.0 mg/kg/injection, schedule: Q01DX005 (ip), vehicle: saline with Tween-80 106 % of control | [12] 108 % of control and 110 % of control

S=C1NC2(CCCCC2)NC12CCCCC2
inactive: [3] 86 % of control | [4] 93 % of control | [5] 98 % of control | dose: 400.0 mg/kg/injection, schedule: Q01DX009 (ip), vehicle: Klucel (hydroxypropylcellulose) (HPC) 93 % of control

COc1cc2c(cc1C(C)c1ccc(O)cc1)OCO2 (centres undefined)
inactive: dose: 50.0 mg/kg/injection, schedule: Q01DX005 (ip), vehicle: distilled water + Tween-80 100 % of control | dose: 100.0 mg/kg/injection, schedule: Q01DX005 (ip), vehicle: distilled water + Tween-80 97 % of control | dose: 200.0 mg/kg/injection, schedule: Q01DX005 (ip), vehicle: distilled water + Tween-80 96 % of control

O=S(=O)(NCCSSCCNS(=O)(=O)c1ccc(Cl)cc1)c1ccc(Cl)cc1
inactive: [3] 92 % of control | [4] 91 % of control | [5] 88 % of control

COc1cccc2c1OC(=O)C(S(=O)(=O)c1ccccc1)C2 (centres undefined)
inactive: [15] 97 % of control | [16] 104 % of control | [17] 101 % of control

CC(=O)C1C(=O)C=C(C)OC1=O.CC(=O)C1C(=O)C=C(C)OC1=O.[Hg] (centres undefined)
inactive: dose: 1.56 mg/kg/injection, schedule: Q01DX009 (ip), vehicle: Klucel (hydroxypropylcellulose) (HPC) 88 % of control | dose: 3.12 mg/kg/injection, schedule: Q01DX009 (ip), vehicle: Klucel (hydroxypropylcellulose) (HPC) 101 % of control | dose: 6.25 mg/kg/injection, schedule: Q01DX009 (ip), vehicle: Klucel (hydroxypropylcellulose) (HPC) 91 % of control and 93 % of control

CCCCCCC(=O)/C=C/c1ccc(OC)c(OC)c1OC
inactive: [9] 96 % of control | [10] 96 % of control | [11] 102 % of control

Cc1cc(OC(N)=S)cc(C)c1Cl
inactive: [3] 101 % of control | [4] 100 % of control | [5] 101 % of control

CC1CCCC2CC3CCCCC3OCN12 (centres undefined)
inactive: [23] 109 % of control | [24] 104 % of control | [25] 104 % of control

O=C1C(Cl)=C(c2ccccc2)C(=O)C(Cl)=C1c1ccccc1
inactive: dose: 12.5 mg/kg/injection, schedule: Q01DX009 (ip), vehicle: saline with Tween-80 100 % of control | dose: 25.0 mg/kg/injection, schedule: Q01DX009 (ip), vehicle: saline with Tween-80 109 % of control | [9] 109 % of control

O=C1CC(c2cccc(S(=O)(=O)O)c2)=NN1c1ccc([N+](=O)[O-])cn1
inactive: [23] 108 % of control | [24] 100 % of control | [25] 106 % of control

CCN(CC)C(=O)N1C=CC(c2ccccc2)C=C1
inactive: [12] 103 % of control | [13] 106 % of control | [14] 108 % of control

O=C(CCCCCO)c1nc2ccccc2s1
inactive: [6] 100 % of control | [7] 102 % of control | dose: 240.0 mg/kg/injection, schedule: Q01DX005 (ip), vehicle: Klucel (hydroxypropylcellulose) (HPC) 94 % of control

CCN(CC)c1ccc(C(=N)c2ccc(N(C)C)cc2)cc1
inactive: [20] 99 % of control | [21] 99 % of control | [22] 90 % of control and 92 % of control
